Data from patent US20260206761A1, “HETEROARYL-TRIAZOLE COMPOUNDS AS PESTICIDES” (Bayer Aktiengesellschaft, priority 2019, published 2026).

Assays:
Format in all cases: in vivo
[1] = test system: Rhipicephalus microplus larvae (strain Parkhurst, resistant against synthetic pyrethroids); experiment: Rhipicephalus (Boophilus) microplus in-vitro contact test, larval cattle tick; settings: after 48 hours, read-out: activity (efficacy: larvae dead or moribund); for pest or weed control at 100 g/ha: application rate 1 pg/cm^2 (=100 g/ha); for pest or weed control at 500 g/ha: application rate 5 pg/cm^2 (=500 g/ha)
How it was run: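 Larvae (20-50 per tube) exposed to dry compound film on glass tube walls, 5 μg/cm^2 at 900 ppm, applied from acetone. After 48 h at 27° C./85% RH, tubes tapped and negative geotaxis scored; efficacy as percent dead or moribund larvae.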

[2] = test system: adult engorged female ticks (Rhipicephalus microplus); experiment: Rhipicephalus (Boophilus) microplus injection test; settings: 168 h, egg deposition after 7 days, read-out: activity (efficacy: infertile eggs); for pest or weed control at 4 pg: application rate 4 pg/animal; for pest or weed control at 0.02 mg: application rate 20 μg/animal
How it was run: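 Abdominal injection, 1 μL compound/DMSO, n=5 engorged adult females; climate-chamber incubation. Readout d7: fertile egg laying; doubtful eggs held to hatch (~42 d). % efficacy = infertile eggs (100% all infertile).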

[3] = test system: adult unfed cat fleas (Ctenocephalides felis); experiment: Ctenocephalides felis oral test; settings: 48 h, read-out: activity (mortality)
How it was run: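 About 20 adult unfed fleas fed through parafilm on cattle blood containing compound (DMSO stock diluted in blood), blood held at 37 °C and fleas at room temperature. Mortality (%) scored after 2 days.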

[4] = test system: southern root-knot nematode (Meloidogyne incognita); experiment: Meloidogyne incognita test; settings: 336 h, application rate 20 ppm, after 14 days, read-out: nematicidal activity (based on gall formation)
Experimental: Meloidoyne incognita—Test
Solvent: 125.0 parts by weight of acetone
To produce a suitable preparation of active compound, 1 part by weight of active compound is mixed with the stated amount of solvent, and the concentrate is diluted with water to the desired concentration.
Vessels are filled with sand, a solution of the active ingredient, a suspension containing eggs and larvae of the southern root-knot nematode (Meloidogyne incognita) and salad seeds. The salad seeds germinate and the seedlings grow. Galls develop in the roots.
After 14 days the nematicidal activity is determined based on the percentage of gall formation. 100% means no galls were found and 0% means the number of galls found on the roots of the treated plants was equal to that in untreated control plants.

[5] = test system: adult brown dog ticks (Rhipicephalus sanguineus); experiment: Rhipicephalus sanguineus in-vitro contact test, adult brown dog ticks; settings: after 48 hours, read-out: activity (efficacy: ticks dead or moribund); for pest or weed control at 5 µg/cm2, 500 g/ha: application rate 5 μg/cm^2 (=500 g/ha)
How it was run: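 Contact exposure: dried compound film inside glass tubes, dose 5 μg/cm^2 at 900 ppm, 5-10 adults per tube at room temperature. Scored at 48 h via a heat-escape test on a 45-50° C plate for up to 5 min.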

[6] = test system: larvae of the banded cucumber beetle (Diabrotica balteata); experiment: Diabrotica balteata spray test; settings: 168 h, after 7 days, read-out: activity (efficacy: seedlings grown); for pest or weed control at 100 g/ha: application rate 100 g/ha (=32 pg/well)
How it was run: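 Read-out is % efficacy at day 7, 0% meaning no seedling growth and 100% growth equal to uninfested untreated controls. Test solutions (acetone/DMF concentrate diluted with water carrying 1000 ppm emulsifier) were sprayed onto 1-day-germinated wheat seeds, 5 per well, before infestation with 10-20 larvae.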

[7] = test system: green peach aphid (Myzus persicae); experiment: Myzus persicae oral test; settings: 120 h, application rate 4 ppm, after 5 days
How it was run: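 Five-day oral feeding assay measuring percent mortality of a mixed aphid population that draws compound-containing sugared IPL41 medium through sealing parafilm; the test preparation derives from 1 part compound per 100 parts acetone, diluted with water.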

[8] = test system: fall armyworm larvae (Spodoptera frugiperda); experiment: Spodoptera frugiperda spray test; settings: 168 h, read-out: activity (mortality)
How it was run: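 Larvae of fall armyworm placed on dried maize leaf sections previously sprayed with emulsified compound (acetone/DMF solvent, water with 1000 ppm emulsifier). Percent of caterpillars killed recorded on day 7, 0–100% scale.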

[9] = test system: green peach aphid (Myzus persicae); experiment: Myzus persicae spray test; settings: 120 h, application rate 100 g/ha, after 5 days
How it was run: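 Chinese cabbage leaf disks carrying all instars of M. persicae sprayed with compound in acetone/DMF, diluted in water with 1000 ppm alkylarylpolyglycol ether emulsifier. Percent mortality scored after 5 days (100% = all aphids killed).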

[10] = test system: larvae of the southern green stink bug (Nezara viridula); experiment: Nezara viridula spray test; settings: 96 h, after 4 days; for mortality at 100 g/ha: application rate 100 g/ha; for mortality at 500 g/ha: application rate 500 g/ha
How it was run: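 Larva-infested barley (Hordeum vulgare) plants received a spray of test solution prepared from an acetone/DMF concentrate diluted in emulsifier-containing water (1000 ppm). Percent kill read 4 days later; 0% means no stink bugs dead.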

[11] = test system: brown planthopper (Nilaparvata lugens); experiment: Nilaparvata lugens spray test; settings: 96 h, after 4 days; for mortality at 100 g/ha: application rate 100 g/ha; for mortality at 500 g/ha: application rate 500 g/ha
Experimental: Nilaparvata lugens—Spray Test
Solvent: 78.0 parts by weight of acetone • • 1.5 parts by weight of dimethylformamide
Emulsifier: alkylarylpolyglycol ether
To produce a suitable preparation of active compound, 1 part by weight of active compound is mixed with the stated amount of solvents and is diluted with water, containing an emulsifier concentration of 1000 ppm, to the desired concentration. Further test concentrations are prepared by dilution with emulsifier containing water.
Rice plants (Oryza sativa) are sprayed with a preparation of the active ingredient of the desired concentration and the plants are infested with the brown planthopper (Nilaparvata lugens).
After 4 days mortality in % is determined. 100% means all planthoppers have been killed and 0% means none of the planthoppers have been killed.

[12] = test system: Aedes aegypti strain MONHEIM; experiment: Aedes aegypti test (AEDSAE surface treatment & contact assay); settings: 24 hours after contact, read-out: efficacy (mortality); for mortality at 20 mg/m2: surface concentration 20 mg/m^2, exposure 30 minutes; for mortality at 4 mg/m2: surface concentration 4 mg/m^2, exposure 30 minutes
How it was run: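 Percent mortality was read 24 h after adult MONHEIM mosquitoes were held for 30 min on a tile treated with compound. Compound applied from acetone solution (2 mg/ml) containing 2000 ppm rapeseed oil methyl ester, after evaporation.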

[13] = test system: Musca domestica strain WHO-N; experiment: Musca domestica test (MUSCDO surface treatment & contact assay); settings: 24 hours after contact, read-out: efficacy (mortality); for mortality at 4 mg/m2: surface concentration 4 mg/m^2, exposure 30 minutes; for mortality at 20 mg/m2: surface concentration 20 mg/m^2, exposure 30 minutes
Experimental: Musca domestica Test (MUSCDO Surface Treatment & Contact Assay)
(§1) Solvent: Aceton+2000 ppm rapeseed oil methyl ester (RME)
(§2) In order to produce a sufficient, active ingredient containing solution it is necessary to solve the test compound in the solvent-mix (acetone at 2 mg/ml/RME 2000 ppm). This solution is pipetted onto a glazed tile and after evaporation of the acetone, adult flies of the species Musca domestica strain WHO—N are placed onto the dried surface. The exposure time is 30 minutes. Mortality in percent (%) is determined 24 hours after contact of the insects to the treated surface. 100% mortality means that all tested insects are dead, whereas 0% means that no insect died.

[14] = test system: adult cat fleas (Ctenocephalides felis); experiment: Ctenocephalides felis in-vitro contact test, adult cat flea; settings: application rate 5 μg/cm^2 (=500 g/ha), after 48 hours, read-out: activity (efficacy: fleas dead or moribund)
How it was run: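 Efficacy, as % of fleas dead or moribund, was read 48 h after 5-10 adult cat fleas were confined in glass tubes whose walls carried dried compound film (900 ppm, […]). Fleas failing to escape upward from a 45-50° C plate within 5 min counted as dead or moribund.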

[15] = test system: Anopheles funestus strain FUMOZ-R; experiment: Anopheles funestus test (ANPHFU surface treatment & contact assay); settings: 24 hours after contact, read-out: efficacy (mortality)
Experimental: Anopheles funestus Test (ANPHFU Surface Treatment & Contact Assay)
as §1
as §2, with “mosquitoes” for “flies”, “Anopheles funestus” for “Musca domestica”, “FUMOZ-R (Hunt et al., Med. Vet. Entomol. 2005 September; 19(3): 271-275)” for “WHO—N”

| SMILES | pest or weed control at 100 g/ha [1] | pest or weed control at 500 g/ha [1] | pest or weed control at 4 pg [2] | pest or weed control at 0.02 mg [2] | pest or weed control at 20 ppm [4] | pest or weed control at 5 µg/cm2, 500 g/ha [5] | pest or weed control at 100 g/ha [6] | mortality at 4 ppm [7] | mortality at 100 g/ha [8] | mortality at 100 g/ha [9] | mortality at 100 g/ha [10] | mortality at 20 mg/m2 [12] | mortality at 4 mg/m2 [13] | mortality at 20 mg/m2 [13] | mortality at 500 g/ha [10] | mortality at 500 g/ha [11] | other results |
| --- | --- | --- | --- | --- | --- | --- | --- | --- | --- | --- | --- | --- | --- | --- | --- | --- | --- |
| CCS(=O)(=O)c1cc(Cl)cc(C(=O)N[C@@H](C)c2nc(C(C)C)nn2-c2ccc(C#N)cn2)c1 [I-17] | 80% | 80% | 100% | 100% | 90% |  |  |  |  |  |  |  |  |  |  |  | mortality at 100 ppm [3]: 90% |
| CC(C)c1nc([C@H](C)NC(=O)c2cc(Cl)cc(S(=O)(=O)C3CC3)c2)n(-c2ccc(C#N)cn2)n1 [I-18] | 90% | 90% | 100% | 100% | 100% | 100% | 100% | 100% |  |  |  |  |  |  |  |  | mortality at 100 ppm [3]: 80% |
| C[C@H](NC(=O)c1cc(C2CC2)cc(S(=O)(=O)C2CC2)c1)c1nc(C2CC2)nn1-c1ccc(C#N)cn1 [I-56] | 100% | 100% |  |  | 100% |  |  |  | 100% |  |  |  |  |  |  |  |  |
| C[C@H](NC(=O)c1cc(C(F)(F)F)cc(S(C)(=O)=O)c1)c1nc(C2CC2)nn1-c1ccc(C#N)cn1 [I-64] |  |  |  |  |  |  | 100% | 100% | 100% | 100% | 100% | 80 to 100% | 80 to 100% | 80 to 100% |  |  | mortality at 100 g/ha [11]: 100% |
| C[C@H](NC(=O)c1cc(OC(F)(F)F)cc(S(C)(=O)=O)c1)c1nc(C2CC2)nn1-c1ccc(C#N)cn1 [I-81] |  |  |  |  |  |  | 100% | 100% | 100% | 90% | 100% |  | 80 to 100% | 80 to 100% | 100% | 100% | mortality at 4 mg/m2 [12]: 80 to 100% |
| C[C@H](NC(=O)c1cc(OC(F)(F)F)cc(S(C)(=O)=O)c1)c1nc(C2CC2)nn1-c1ncc(Cl)cn1 [I-82] |  |  |  |  |  |  | 100% | 100% | 100% | 90% | 100% | 80 to 100% | 80 to 100% | 80 to 100% | 100% | 90% |  |
| CC(NC(=O)c1cc(OC(F)(F)F)cc(C2CC2)c1)c1nc(I)nn1-c1ccc(C#N)cn1 (stereo not drawn) [I-83] | 100% | 100% |  |  | 100% | 80% | 100% |  | 100% |  |  |  |  |  |  |  |  |
| CC(NC(=O)c1cc(OC(F)(F)F)cc(C2CC2)c1)c1nc(Br)nn1-c1ccc(C#N)cn1 (stereo not drawn) [I-84] |  |  |  |  | 100% |  | 100% |  | 100% |  |  |  |  |  |  |  |  |
| C[C@H](NC(=O)c1cc(C#N)cc(S(C)(=O)=O)c1)c1ncnn1-c1ncccn1 [II-28] |  |  | 100% | 100% |  | 100% |  | 100% |  |  | 100% | 80 to 100% |  |  | 100% | 100% | pest or weed control at 5 µg/cm2 [14]: 100%; pest or weed control at 100 g/ha ([5]; application rate 1 pg/cm^2 (=100 g/ha)): 100%; pest or weed control at 500 g/ha ([6]; application rate 500 g/ha (=160 pg/well)): 100%; mortality at 100 g/ha [11]: 100%; mortality at 4 mg/m2 [12]: 80 to 100%; mortality at 4 mg/m2 ([15]; surface concentration 4 mg/m^2, exposure 30 minutes): 80 to 100%; mortality at 20 mg/m2 ([15]; surface concentration 20 mg/m^2, exposure 30 minutes): 80 to 100% |
